Laboratory results published in publication PMC11775015, “Parishin B blocking TRIB3-AKT1 interaction inhibits breast cancer lung metastasis” (Frontiers in Pharmacology, 2025).

Biological target: T1, TRIB3 (Tribbles homolog 3) (Homo sapiens, UniProt Q96RU7)
T1 construct: endogenous untagged full-length protein in RIPA lysate of MDA-MB-231 cells, detected by Western blot (anti-TRIB3 Abcam ab75846); NP_066981.2 printed for the homology model
T1 sequence (Q96RU7 1-358): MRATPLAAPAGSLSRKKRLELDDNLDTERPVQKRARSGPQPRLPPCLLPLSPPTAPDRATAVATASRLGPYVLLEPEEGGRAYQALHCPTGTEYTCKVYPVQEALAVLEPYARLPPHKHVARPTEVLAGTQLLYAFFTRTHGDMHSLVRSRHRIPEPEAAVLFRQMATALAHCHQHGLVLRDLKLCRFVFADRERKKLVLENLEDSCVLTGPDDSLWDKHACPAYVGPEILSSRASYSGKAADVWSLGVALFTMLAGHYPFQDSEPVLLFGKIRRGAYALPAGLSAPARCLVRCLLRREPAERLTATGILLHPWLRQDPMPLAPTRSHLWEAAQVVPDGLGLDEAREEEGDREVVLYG
Experiment: CETSA (cell lysate, Western blot)
Type: biochemical
Details: 10 uM PB, 1 h, MDA-MB-231 RIPA lysate; 35-60 C for 10 min

## O=C(O)CC(O)(CC(=O)OCc1ccc(O[C@@H]2O[C@H](CO)[C@@H](O)[C@H](O)[C@H]2O)cc1)C(=O)OCc1ccc(O[C@@H]2O[C@H](CO)[C@@H](O)[C@H](O)[C@H]2O)cc1 (stereo partly shown) [PB, Parishin B]
  CETSA (cell lysate, Western blot): PB enhances the thermal stability of TRIB3, resulting in improved thermal stabilization of TRIB3
